Measurements as given in BindingDB's records for doi:10.1016/S0960-894X(00)80098-0 (1993).
pIC50: −log10 of the molar value.

Assay: Tested for the NMDA antagonist activity using a functional assay, by protection of cultured hippocampus neurons from the toxic effects of extracellularly applied glutamate

SMILES	pIC50
OC(CN1CCC(Cc2ccc(F)cc2)CC1)c1ccc(Cl)cc1 (stereo not given)	6.00
C[C@@H]([C@H](O)c1ccc2c(c1)CC(=O)N2)N1CCC(Cc2ccccc2)CC1 [5-[(1R,2S)-2-(4-Benzyl-piperidin-1-yl)-1-hydroxy-propyl]-1,3-dihydro-indol-2-one]	6.64
C[C@@H]([C@@H](O)c1ccc2c(c1)CC(=O)N2)N1CCC(c2ccccc2)CC1 [5-[(1S,2S)-1-Hydroxy-2-(4-phenyl-piperidin-1-yl)-propyl]-1,3-dihydro-indol-2-one]	7.40
C[C@@H]([C@@H](O)c1ccc2c(c1)CC(=O)N2)N1CCC(Cc2ccccc2)CC1 [5-[(1S,2S)-2-(4-Benzyl-piperidin-1-yl)-1-hydroxy-propyl]-1,3-dihydro-indol-2-one]	6.95
O=C1Cc2cc(C(O)CN3CCC(Cc4ccc(F)cc4)CC3)ccc2N1 (stereo not given) [5-{2-[4-(4-Fluoro-benzyl)-piperidin-1-yl]-1-hydroxy-ethyl}-1,3-dihydro-indol-2-one]	6.22
